Source: US11572402B2, “Method for promoting diversification of antibody variable region” (Chiome Bioscience Inc., priority 2017, dated 2023)
“Also recorded” adds a separate entry of the source.

Tested on: hVEGF-A-#33 cell line
Assay: Screening for diversification-promoting compounds by FCM (hIgG+_hVEGF-A− population)
Format: cell-based, chicken
Details: hVEGF-A-#33 cells expressing human IgG, versus negative control CS(−)
Description: Frozen stocks of the hVEGF-A #33 cell line and the hVEGF-A #44 cell line (3.0×10^6 cells) were each awaken with a CS(-) medium, using a 25 cm^2 Flask (Corning, 430639), and were then cultured in a CO2 incubator (SANYO CO2 Incubator MCO-20AIC, 39.5° C., 5% CO2). On the following day, the cells were seeded on a 6-well dish (Nunc, 140675) to a cell density of 1.0×10^4 cells/mL (wherein the cell concentration and the survival rate were measured using CASY cell counter (Nepa Gene)). The cells were cultured in a CS(+) medium, in the presence or absence of a PI3Kα inhibitor ([…]: 10 μM, PI3Kα Inhibitor 2: 500 nM). Moreover, after the cells had been cultured for 2 days, individual samples were subcultured under the same conditions to result in a cell density of 1.0×10^4 cells/mL. Further, after completion of the culture for 3 days, individual samples were subcultured under the same conditions to result in a cell density of 6.0×10^4 cells/mL, and the culture was continued. After completion of the culture for 2 days (Day 7 of the culture), individual samples were centrifuged to remove a supernatant, and the residue was then suspended in a CS(+) medium supplemented with 1 μM FK-506 (hereinafter referred to as a “CS/FK medium”). The suspension was centrifuged again to remove a supernatant. This washing step was carried out repeatedly twice, and individual samples were then suspended in a CS/FK medium supplemented with AF647-labeled hVEGF-A (10 nM) and 2,000-fold diluted Goat Anti-Human IgG-PE. The light was shielded, and the obtained suspension was then reacted at 4° C. for 30 min. After completion of the staining, the reaction mixture was washed with a CS/FK medium twice, and each sample was then suspended in the CS/FK medium. Thereafter, using FACS Aria Fusion (BD), FCM and single cell sorting was carried out. Dead cells were removed using FSC-SSC plot. A plot, in which the vertical axis indicated AF647 (AF647-labeled hVEGF-A) and the longitudinal axis indicated PE (Goat Anti-Human IgG-PE), was developed, and the percentage of PE+(hIgG+)/AF647-(hVEGF-A-) cells was then calculated. In order to make a comparison regarding the number of cells with improved antigen-binding ability according to Affinity Maturation under individual conditions, Affinity Maturation Gate was established according to the following criteria. First, the plot was converted to a contour plot in FCM analysis, and a trapezoid gate having an inclination that was in parallel with the contour of a population in which the most cells were gathered (hereinafter referred to as a “main population”) was established. […] At that time, the vertex of the trapezoid gate was set to be overlapped with the mean value MFI of the main population, and then, a cell population having low antigen-binding ability and a cell population having a low expression level of antibody were set not to enter the gate. The percentage of clones with improved antigen-binding ability was calculated by counting the number of cells existing in this Affinity Maturation Gate and then dividing the obtained value by the total number of the analyzed cells. […]

Structure (SMILES): Cc1nc(NC(=O)N2CCC[C@H]2C(N)=O)sc1-c1csc(C(C)(C)C)n1 [A66]
- percentage of hIgG+_hVEGF-A− cell population (diversification-promoting effect): increased in comparison to the negative control (CS(−)); also recorded: highest diversification-promoting effects
